Series [1] deals with P. pastoris YGLY21058 strain producing glycosylated insulin precursor (GIP). In words: Screening of sugars and sugar alcohols as osmoprotectants in fed-batch cultivation. Format: cell-based, Pichia pastoris. The following applies: for Index of cell lysis (double stranded DNA released into culture medium): 50 g/L in initial batch BSGY, 80 h of induction; for Intact GIP molecule after 80 h-induction (SDS-PAGE): 50 g/L in initial batch medium of BSGY. How it is done: The P. pastoris YGLY21058 strain was cultivated in 1 L glass bioreactors (DASGIP, Germany). For fermentation in 1 L bioreactor, a vial (1 mL) of RCB (Research Cell Bank) was inoculated into 200 mL of Seed medium in 1 L-baffled flask. The culture incubated at 24° C., while shaking on an orbital shaker at 180 rpm for 48±4 h. The bioreactor was inoculated with a 10% volumetric ratio of seed to initial BSGY medium. Cultivation conditions were following: temperature set at 24±0.5° C., pH controlled at 6.5±0.1 with 30% ammonium hydroxide, dissolved oxygen was maintained at 20% of saturation by cascading agitation rate on the addition of pure oxygen to the fixed airflow rate of 0.7 vvm. After depletion of the initial glycerol (4%), a 50% glycerol solution containing 12.5 mL/L of PTM1 salts (6.5 g FeSO4.7H2O, 2.0 g ZnCl2, 0.6 g CuSO4.5H2O, 3.0 g MnSO4.7H2O, 0.5 g CoCl2.6H2O, 0.2 g NaMoO4.2H2O, 0.2 g biotin, 80 mg NaI, 20 mg H3BO4 per L) was fed constantly at an initial rate of 0.08 h^−1 for 8 h. Induction was initiated after a 30 min starvation phase when methanol was fed. Methanol was fed constantly starting at 1.33 g/L/h under methanol limited condition. Agitation speed was changed from cascade mode with agitation speed and pure oxygen.
For comparisons, each sugar or sugar alcohol was added at 50 g/L in initial batch medium of BSGY. In case of control without sugar supplementation (BSGY medium only), glycosylated insulin precursor (GIP) was detectable at 58 h of induction, but not detected at 80 h of induction due to most likely proteolytic degradation caused by heavy cell lysis (Lanes 1 and 2 of FIG. 2 A).

The subject of series [2] is P. pastrois strain yGLY21058. Description: Fermentability of sugars or sugar alcohols on M agar plate. It is filed as cell-based, Pichia pastoris. The following applies: 6 days at 30° C.; for Fermentability category from colony formation on the plate: minimal agar plate; for Growth on M agar: single carbon source 1% w/v. On the procedure:
The 1 mL of RCB (Research Cell Bank in 20% of glycerol) for P. pastrois strain yGLY21058 producing glycosylated insulin precursor (GIP) was inoculated in 200 mL of Seed medium (4% glycerol, 1% yeast extract, 2% soytone, 1.34% YNB without amino acids, 0.23% K2HPO4, 1.19% KH2PO4, 8 μg/L biotin) and cultivated for 48 h at 24° C. The cell pellet was harvested by centrifugation at 4,000 rpm for 10 min and re-suspended with PBS buffer (pH 7.4) to wash the cell twice. The 0.1 mL of cell suspension with wash buffer was transferred and spread onto the minimal agar plate containing each sugar or sugar alcohol (1% w/v), which is listed in Table 1.
YPD (1% yeast extract, 2% yeast peptone, and 1% glucose) agar plate was used for the positive control and a minimal agar plate without carbon sources (M) was used for negative control. Growth of Pichia pastoris on M agar plate containing single carbon source was categorized as no (−), slow (+), moderate (++), and fast (+++) colony formation for 6 days in Table 1.

A short description of series [3]: Osmolality of sugar and sugar alcohol solutions (osmometer). Format: physicochemical. The following applies: 500 mM in water. How it is done: The sugar and sugar alcohol solutions used as osmoprotectant supplements were prepared at 500 mM in water and their osmolalities were measured using Osmometer (Multi-somotte, Model 2430, Precision Systems Inc, MA, USA). The osmolality of solution was directly proportional to the concentration of component in solution. For instance there was a linear relationship between sorbitol concentration (mM) and osmolality of the solution (mOsm/kg) as shown in FIG. 1A. The osmolalities of maltitol, sorbitol, glycerol, and glucose at 500 mM in water were 590±4, 544±3, 541±3, and 568±0 mOsm/kg respectively (FIG. 1B). The osmolaties of sorbose, mellibiose, ribose, quinic acid and myo-inositol at 500 Mm in water were (480±5), (500±5), (470±5), (480±5) AND (510±10), respectively.

Series [4] relates to P. pastoris YGLY 21058 strain. In words: Fermentability of sorbitol and maltitol determined by HPLC. It is filed as cell-based, Pichia pastoris. The following applies: BSGY; maltitol 50 g/L; methanol induction phase. How it is done:
The P. pastoris YGLY 21058 strain was cultivated in 1 L bioreactor and 50 g/L of maltitol was mixed in BSGY medium. The samples were taken at the beginning of fermentation, at the end of glycerol fed-batch before adding maltitol, and two different time-points in methanol induction phase, as shown in FIG. 3. The supernatant was separated by the centrifugation at 13,000 rpm for 1 minutes using micro-centrifuge. The samples properly diluted with distilled water were filtered using 0.2 μm-filter and the residual concentrations of sorbitol and maltitol were determined by HPLC using AMINEX HPX-87H column. The residence times (RTs) for sorbitol and maltitol were 11.5 and 9.3 min respectively. The data were shown in FIG. 3 as two independent runs of cultivation.

Entries after “also recorded” stand apart in the source; their conditions may differ.

For the molecule `O=C[C@@H](O)[C@H](O)[C@H](O)CO` [D-Arabinose], in series [1], the “Index of cell lysis (double stranded DNA released into culture medium)” value (“Index of cell lysis” below) was “much lower than that of control” and the “Intact GIP molecule after 80 h-induction (SDS-PAGE)” value (“Intact GIP molecule” for short) is reported as “intact GIP molecule was maintained”. In series [2], the “Fermentability category from colony formation on the plate” value (from here on “Fermentability category”) is reported as “strict non-fermentable substrates” and the “Growth on M agar” value is listed as “−”.
As for `O=C(O)[C@H](O)[C@@H](O)[C@H](O)[C@H](O)CO` [D-Gluconate], in series [2], the “Fermentability category” value was “very slow colony formation” and the “Growth on M agar” value was “+”.
On to `O=C1O[C@H](CO)[C@@H](O)[C@H](O)[C@H]1O` [D-Glucono-1,5-lactone], for which, in series [2], the “Fermentability category” value was “strict non-fermentable substrates” and the “Growth on M agar” value is listed as “−”.
With `O=C[C@H](O)[C@@H](O)[C@H](O)[C@H](O)CO` [D-Glucose], in series [2], the “Growth on M agar” value was “+++”. Moreover, the Osmolality of solution in series [3] is 568±0 mOsm/kg.
Turning to `OC[C@H]1O[C@H](O[C@H]2[C@H](O)[C@@H](O)[C@H](O)O[C@@H]2CO)[C@H](O)[C@@H](O)[C@@H]1O` [D-Maltose], the “Robustness of Pichia production strains” value in series [1] (methanol induction phase of cultivation) is on record as “significantly improved the robustness”. In addition, in series [2], the “Fermentability category” value was “strict non-fermentable substrates” and the “Growth on M agar” value is “−”.
On to `OC[C@H]1O[C@H](OCC2O[C@@H](O)[C@H](O)[C@@H](O)[C@@H]2O)[C@H](O)[C@@H](O)[C@H]1O` (stereo partly drawn) [D-Melibiose], for which the “Intact GIP molecule” value in series [1] is “intact GIP molecule was maintained”. In series [2], the “Fermentability category” value is on record as “very slow colony formation” and the “Growth on M agar” value is given as “+”. For the same molecule, the Osmolality of solution in series [3] is 500±5 mOsm/kg.
In the case of `O=C(O)[C@]1(O)C[C@@H](O)[C@@H](O)[C@H](O)C1` [D-Quinic acid], in series [2], the “Fermentability category” value is “strict non-fermentable substrates” and the “Growth on M agar” value was “−”. The Osmolality of solution in series [3] came out at 480±5 mOsm/kg.
With `OC[C@H]1O[C@H](OC[C@H]2O[C@H](O[C@]3(CO)O[C@H](CO)[C@@H](O)[C@@H]3O)[C@H](O)[C@@H](O)[C@@H]2O)[C@H](O)[C@@H](O)[C@H]1O` [D-Raffinose], the “Growth on M agar” value in series [2] is on record as “++”.
Regarding `OC[C@@H](O)[C@@H](O)[C@@H](O)CO` [D-Ribitol], in series [2], the “Fermentability category” value was “strict non-fermentable substrates” and the “Growth on M agar” value is “−”.
With `O=C[C@H](O)[C@H](O)[C@H](O)CO` [D-Ribose], in series [1], the “Index of cell lysis” value was “much lower than that of control” and the “Intact GIP molecule” value was “intact GIP molecule was maintained”. Besides, in series [2], the “Fermentability category” value was “very slow colony formation” and the “Growth on M agar” value was “+”. The same molecule returned an Osmolality of solution in series [3] of 470±5 mOsm/kg.
Regarding `OC[C@@H](O)[C@@H](O)[C@H](O)[C@@H](O)CO` [D-Sorbitol], the “Growth on M agar” value in series [2] is reported as “+++”. The “Consumption / fermentability in fed-batch fermentation (residual concentration by HPLC)” value in series [4] is “actively metabolized; also recorded: highly fermentable”. The Osmolality of solution in series [3] was 544±3 mOsm/kg.
With `O=C[C@H](O)[C@@H](O)[C@H](O)CO` [D-Xylose], in series [2], the “Fermentability category” value is recorded as “very slow colony formation” and the “Growth on M agar” value is on record as “+”.
`OCC(O)CO` [Glycerol]: the “Growth on M agar” value in series [2] is given as “+++”. In addition, the Osmolality of solution in series [3] was 541±3 mOsm/kg.
Regarding `OC[C@H](O)C(O)[C@@H](O)CO` [L-Arabitol], in series [2], the “Fermentability category” value is given as “strict non-fermentable substrates” and the “Growth on M agar” value is listed as “−”.
In the case of `O=C(CO)[C@@H](O)[C@H](O)[C@@H](O)CO` [L-Sorbose], the “Intact GIP molecule” value in series [1] is recorded as “intact GIP molecule was maintained”. Moreover, in series [2], the “Fermentability category” value is on record as “very slow colony formation” and the “Growth on M agar” value is given as “+”. This molecule displayed an Osmolality of solution in series [3] of 480±5 mOsm/kg.
For `OC[C@@H](O)[C@H](O)[C@@H](O)CO` [Xylitol], in series [2], the “Fermentability category” value is listed as “strict non-fermentable substrates” and the “Growth on M agar” value is “−”.
For the molecule `O[C@H]1[C@H](O)[C@@H](O)[C@H](O)[C@@H](O)[C@H]1O` [myo-Inositol], in series [1], the “Index of cell lysis” value was “much lower than that of control” and the “Intact GIP molecule” value is listed as “intact GIP molecule was maintained”. In series [2], the “Fermentability category” value is “very slow colony formation” and the “Growth on M agar” value is “+”. In addition, the Osmolality of solution in series [3] is 510±10 mOsm/kg.
`OC[C@H]1O[C@H](O[C@H]2O[C@H](CO)[C@@H](O)[C@H](O)[C@H]2O)[C@H](O)[C@@H](O)[C@@H]1O` [α,α-Trehalose]: the “Growth on M agar” value in series [2] is reported as “++”.
Consider Inulin, for which, in series [2], the “Fermentability category” value was “very slow colony formation” and the “Growth on M agar” value was “+”.
